For data set [1], the system named is Ba/F3-gp130-IL-6R_DG cells. As to the kind of experiment: Proliferation in response to IL-6 or Hyper-IL-6 (S4H Fig). It counts as cell-based. The note with it: highest value = 100, mean of n = 3. The method, then: (§1) Proliferation of the different Ba/F3-gp130-IL-6R cell lines in response to IL-6 and Hyper-IL-6 and of Ba/F3-gp130 cells in response to IL-6 and the two different recombinant sIL-6R variants was determined using the Cell Titer Blue Cell viability assay reagent (Promega, Karlsruhe, Germany), following the manufacturer’s protocol as described previously. Values were measured in triplicates per experiment, and relative light units (RLU) obtained after 60 min were normalized by subtraction of control values obtained after 0 min. The maximum proliferation was set to 100%, and all other values were calculated accordingly.
Supplementary file pbio.2000080.s004.tif: S4 Fig Mutation of Val-356 is sufficient to block ADAM10-mediated proteolysis of the IL-6R and the Asp358Ala variant. (A) HEK293 cells were transiently transfected with Expression plasmids encoding the wildtype IL-6R (PV) or the double mutants (IE, DG) as indicated. Cells were either treated with 1 μM ionomycin for 1 h or DMSO as vehicle control. sIL-6R was precipitated from the supernatant with concanavalin A-covered Sepharose beads, and cells were lysed. Both were analyzed via Western blot, and β-actin served as loading control. One out of three experiments with similar outcome is shown. (B, C) The experiment was performed as described under (A), but sIL-6R generation was analyzed via ELISA. In (B), the amount of sIL-6R generated after ionomycin-stimulation of the wildtype IL-6R (PV) was set to 100%, and all other values were calculated accordingly. In (C), the amount of sIL-6R without stimulation was considered as constitutive shedding and set to 1 and the increase of sIL-6R was calculated. Data shown are the mean ± SD from at least three independent experiments (*p<0.05, ns = no significant difference). (D-F) HEK293 cells were transiently transfected with expression plasmids encoding the wildtype IL-6R (PV) or the single mutants (DV, IV, PE, PG) as indicated. The experiments were performed as described in (A) to (C). (G) ADAM10-mediated proteolysis of the IL-6R variants depicted in Fig 4I was analyzed as described in (B). (H) Equal numbers of Ba/F3-gp130-IL-6R_DG cells were incubated for 48 h with increasing amounts (0–100 ng/ml) of either IL-6 or Hyper-IL-6. One representative experiment out of three performed is shown (mean ± SD, biological triplicates). (TIF) Click here for additional data file.

For data set [2], the system named is Ba/F3-gp130-hIL-6R 2N cells. Kind of data set: Proliferation in response to IL-6 or Hyper-IL-6 (S6B Fig). It counts as cell-based. The note with it: highest value = 100, mean of n = 3.
Excerpt: (§2) In order to analyze a functional role for the determined glycans, we created IL-6R mutants that lacked either one, multiple, or all N-glycosylation sites and stably transduced Ba/F3-gp130 cells with these. […] When we analyzed IL-6-dependent proliferation of the individual cell lines, we could not detect a difference between the wild-type IL-6R (Fig 4K), IL-6R mutants lacking one of the five N-glycosylation sites (Fig 6A–6E), IL-6R mutants lacking two (termed 2N), three (3N), or four N-glycosylation sites (4N, S6B–S6D Fig), or the IL-6R mutant that lacked all five N-glycans (5N, Fig 6F). Similarly, mutation of the O-glycosylation site on Thr-352 had no influence on IL-6 signaling (Fig 6G).
as §1
(§3) Supplementary file pbio.2000080.s006.tif: S6 Fig Cell-surface expression and signaling capacity of different N-glycan mutants. (A) Cell-surface expression of the IL-6R on the individual Ba/F3-gp130-IL-6R cell lines. The stably transduced IL-6R mutant is indicated above the histogram. Staining is shown in color, whereas the control staining is shown in gray. One out of three experiments with similar outcome is shown. (B-D) Equal numbers of cells of the indicated Ba/F3-gp130-hIL-6R cell line were incubated for 48 h with increasing amounts (0–100 ng/ml) of either IL-6 or Hyper-IL-6. One representative experiment out of three performed is shown (mean ± SD, biological triplicates). (TIF) Click here for additional data file.

Data set [3] has as its system Ba/F3-gp130-hIL-6R 3N cells. As to the kind of experiment: Proliferation in response to IL-6 or Hyper-IL-6 (S6C Fig). The format is cell-based. The note with it: highest value = 100, mean of n = 3.
Excerpt: as §2, §1, §3

Data set [4] concerns Ba/F3-gp130-hIL-6R-4N cells. Kind of data set: Proliferation in response to IL-6 or Hyper-IL-6 (S6D Fig). The format is cell-based. The following applies: highest value = 100, mean of n = 3.
Excerpt: as §2, §1, §3

For data set [5], the system named is recombinant catalytic domain of ADAM17. As to the kind of experiment: recombinant catalytic domain of ADAM17 in 25 mM Hepes (pH 9.0). The note with it: 37°C, up to 16 h.

Turning to IL-6: recombinant human interleukin-6, the “proliferation, Figure S4H, mean” value is 4.604 in data set [1] (cytokine 0.001 ng/ml); 11.7535 in data set [1] (cytokine 0.01 ng/ml); 45.6464 in data set [1] (cytokine 0.1 ng/ml); 77.0141 in data set [1] (cytokine 1 ng/ml); 92.624 in data set [1] (cytokine 10 ng/ml); 70.8452 in data set [1] (cytokine 100 ng/ml). Besides, the “proliferation, Figure S6B, mean” value was determined as 10.1623 in data set [2] (cytokine 0.001 ng/ml); 21.276 in data set [2] (cytokine 0.01 ng/ml); 41.189 in data set [2] (cytokine 0.1 ng/ml); 78.0666 in data set [2] (cytokine 1 ng/ml); 86.7819 in data set [2] (cytokine 10 ng/ml); 79.1326 in data set [2] (cytokine 100 ng/ml). The “proliferation, Figure S6C, mean” value in data set [3] (cytokine 0.001 ng/ml) is on record as 8.138; in data set [3] (cytokine 0.01 ng/ml), 15.3684; in data set [3] (cytokine 0.1 ng/ml), 39.4534; in data set [3] (cytokine 1 ng/ml), 92.5489; in data set [3] (cytokine 10 ng/ml) it was 89.1651; in data set [3] (cytokine 100 ng/ml), 87.3482. For the same substance, the “proliferation, Figure S6D, mean” value is on record as 7.259 in data set [4] (cytokine 0.001 ng/ml); 22.724 in data set [4] (cytokine 0.01 ng/ml); 61.9479 in data set [4] (cytokine 0.1 ng/ml); 88.3209 in data set [4] (cytokine 1 ng/ml); 84.8559 in data set [4] (cytokine 10 ng/ml); 63.7775 in data set [4] (cytokine 100 ng/ml).
On to NILFRDSANATSLPVQDSSSVPLP [3(QD)], for which the not cleaved in data set [5] is 91.4% ± 9.4% intact after 16 h.
The same measure, in the same setting: the result for NILFRDSANATSLPVQDSSSVPLP [5(QD)] reads “cleavage blocked; mean 101.852% intact after 16 h”.
The same measure, in the same setting: the result for NILFRDSANATSLPVQDSSSVPLP [7(QD)] reads 91% ± 8% after 16 h; that for NILFRDSANATSLPVQDSSSVPLP [9(QD)], “cleavage blocked; mean 95.585% intact after 16 h”.

(Values after publication PMC5218472 (PLoS Biology, 2017).)
